Drawing on ChEMBL document CHEMBL3593228, “Hedgehog inhibitors from Artocarpus communis and Hyptis suaveolens” (Bioorg Med Chem, 2015), this text covers inhibition and IC50 for 14 molecules.

Calls of active or inactive are those of the source. No cut-off for these calls is given here.

By IC50 is commonly meant the midpoint of a concentration-inhibition curve.

Experiment [1] has as its target T1, Zinc finger protein GLI1 (Homo sapiens) (UniProt P08151).
T1 sequence (whole entry): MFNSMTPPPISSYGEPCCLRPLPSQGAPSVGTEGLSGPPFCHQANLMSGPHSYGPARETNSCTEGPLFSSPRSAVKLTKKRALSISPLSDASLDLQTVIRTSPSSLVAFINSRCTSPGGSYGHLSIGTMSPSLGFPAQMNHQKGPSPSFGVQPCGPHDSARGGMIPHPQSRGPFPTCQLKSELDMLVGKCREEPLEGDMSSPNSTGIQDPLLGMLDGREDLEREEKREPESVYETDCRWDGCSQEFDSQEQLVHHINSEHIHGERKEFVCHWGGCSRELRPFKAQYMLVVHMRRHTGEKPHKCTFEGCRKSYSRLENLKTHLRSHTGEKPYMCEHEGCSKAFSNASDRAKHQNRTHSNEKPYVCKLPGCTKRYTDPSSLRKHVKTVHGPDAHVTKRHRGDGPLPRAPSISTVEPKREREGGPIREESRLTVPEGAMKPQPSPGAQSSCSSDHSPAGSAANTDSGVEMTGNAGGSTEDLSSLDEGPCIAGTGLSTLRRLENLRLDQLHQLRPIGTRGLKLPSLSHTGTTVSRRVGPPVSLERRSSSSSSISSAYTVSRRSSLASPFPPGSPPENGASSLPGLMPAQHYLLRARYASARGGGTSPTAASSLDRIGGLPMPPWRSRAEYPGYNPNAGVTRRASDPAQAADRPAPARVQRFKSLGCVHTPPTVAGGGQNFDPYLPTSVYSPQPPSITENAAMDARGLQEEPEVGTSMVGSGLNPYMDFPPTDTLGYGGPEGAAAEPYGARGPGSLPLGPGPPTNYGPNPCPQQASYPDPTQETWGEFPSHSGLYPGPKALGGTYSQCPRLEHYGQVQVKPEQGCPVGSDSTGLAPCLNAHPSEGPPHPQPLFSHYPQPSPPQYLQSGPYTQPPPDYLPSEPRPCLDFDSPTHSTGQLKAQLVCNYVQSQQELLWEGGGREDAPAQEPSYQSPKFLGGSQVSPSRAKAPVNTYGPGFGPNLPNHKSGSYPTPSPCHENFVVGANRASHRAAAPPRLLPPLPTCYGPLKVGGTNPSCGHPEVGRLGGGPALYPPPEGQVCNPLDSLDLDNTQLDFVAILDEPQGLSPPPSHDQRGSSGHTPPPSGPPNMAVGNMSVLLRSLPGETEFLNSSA
As to the kind of experiment: Inhibition of GLI1-DNA (unknown origin) complex formation at 15 to 30 uM after 20 mins by electrophoretic mobility shift assay. (A gel shift assay detects complexes by their altered migration in electrophoresis.)

Experiment [2] can be described thus: Cytotoxicity against Hh signaling abnormally activated human PANC1 cells after 24 hrs by fluorometric microculture assay. Particulars: PANC-1, 24 h. It is filed as functional, cell-based.
The test system of the next experiment is DU-145. As to the kind of experiment: Cytotoxicity against Hh signaling abnormally activated human DU145 cells after 24 hrs by fluorometric microculture assay. The following applies: DU-145, 24 h. The experiment is classed as functional, cell-based.
A short description of experiment [3]: Cytotoxicity against mouse C3H10T1/2 cells after 24 hrs by fluorometric microculture assay. It is filed as cell-based. Particulars: C3H 10T1/2, 24 h.
Experiment [4] can be described thus: Inhibition of hedgehog signaling pathway in human HaCaT cells assessed as GLI1-mediated transcriptional activity after 12 hrs by luciferase assay. The experiment is classed as cell-based.
A short description of experiment [5]: Inhibition of hedgehog signaling pathway in human HaCaT cells assessed as reduction of BCL2 expression after 12 hrs by Western blotting. It is filed as cell-based. A general note: A western blot detects proteins with antibodies after separation by electrophoresis.
Experiment [6] is described as follows: Inhibition of hedgehog signaling pathway in human DU145 cells assessed as reduction of BCL2 expression at 7 to 13.9 uM after 12 hrs by Western blotting. It is filed as cell-based. The following applies: DU-145.
Experiment [7] has as its target T1, Zinc finger protein GLI1 (Homo sapiens). Kind of experiment: Inhibition of GLI1-DNA (unknown origin) complex formation at 15 to 150 uM after 20 mins by electrophoretic mobility shift assay.
Experiment [8] is described as follows: Inhibition of hedgehog signaling pathway in human HaCaT cells assessed as reduction of BCL2 expression at 7.6 uM after 12 hrs by Western blotting. The experiment is classed as cell-based.
The nature of experiment [9]: Inhibition of hedgehog signaling pathway in human HaCaT cells assessed as reduction of BCL2 expression at 13.9 uM after 12 hrs by Western blotting. It is filed as cell-based.

As to `CC(C)=CCC/C(C)=C/Cc1c(CCC(=O)c2ccc(O)cc2O)ccc(O)c1O`, in [1], the inhibition entry is “Active”. The IC50 in experiment [2] was 42.9 µM; in the experiment on DU-145, 80.6 µM; in [3], over 75 µM; in [4] it was 23.6 µM. Besides, in experiment [4], the inhibition result was “Dose-dependent effect”.

Take `CC(C)=CCC/C(C)=C/Cc1c(O)cc2c(c1O)C(=O)C[C@@H](c1ccc(O)cc1)O2` [BONANNIONE A]: the IC50 was 29.9 µM in experiment [2], over 75 µM in [3] and 14.6 µM in [4]. Moreover, in [4], the inhibition result was “Dose-dependent effect”.

Turning to `CC(C)=CCCC1(C)CCc2c(CCC(=O)c3ccc(O)cc3O)ccc(O)c2O1` (stereo not given), the IC50 in [2] is 59.5 µM; in experiment [3] it was over 75 µM; in [4], 44.2 µM. Further, in experiment [4], the inhibition entry is “Dose-dependent effect”.

As to `COC(C)(C)CCCC1(C)CCc2c(CCC(=O)c3ccc(O)cc3O)ccc(O)c2O1` (stereo not given), the values for the IC50 in [2] and in experiment [4] were 48.3 µM and 39.9 µM, respectively.

As for `C/C(=C\Cc1c(CCC(=O)c2ccc(O)cc2O)ccc(O)c1O)CCCC(C)(C)O`, the IC50 in experiment [2], in experiment [3] and in [4] was over 75 µM in each case.

For `C=C1C(=O)O[C@H]2/C=C(\C)C[C@@H]3C=C(C/C=C/[C@@](C)(O)CC[C@H]12)C(=O)O3`, the results for the 50% inhibitory concentration (IC50) in [2], in experiment [3] and in experiment [4] were 46.9 µM, over 50 µM and 16.3 µM, respectively.

For the molecule `CC(C)(O)CCCC1(C)Oc2c(O)ccc(CCC(=O)c3ccc(O)cc3O)c2CC1O` (stereo not given), the results for the IC50 in [2] and in experiment [4] were 58.8 µM and 43.5 µM, respectively.

With `C=C1C(=O)O[C@H]2/C=C(\C)C[C@@H]3C=C(C/C=C/[C@@](C)(OO)CC[C@H]12)C(=O)O3`, the inhibition entry in [5] and in experiment [4] was “Dose-dependent effect” throughout. Besides, the inhibition result in experiment [6] and in [7] was “Active” throughout. Further, the half-maximal inhibitory concentration (IC50) in [2] is 17.9 µM; in the experiment on DU-145 it was 30.3 µM; in experiment [3], over 55.6 µM; in [4] it was 7.6 µM.

Regarding `COC(C)(C)CCC/C(C)=C/Cc1c(CCC(=O)c2ccc(O)cc2O)ccc(O)c1O`, in experiment [1], the inhibition result is “Active”. The half-maximal inhibitory concentration (IC50) in experiment [2], in [3] and in experiment [4] was over 75 µM in each case.

As to `CC(C)=CCCC1(C)Oc2c(O)ccc(CCC(=O)c3ccc(O)cc3O)c2CC1O` (stereo not given), the figures for the IC50 in [2], in experiment [3] and in experiment [4] were 50 µM, over 75 µM and 40.1 µM, respectively. For the same molecule, in [4], the inhibition result was “Dose-dependent effect”.

In the case of `C=C1C(=O)O[C@H]2/C=C(\C)C[C@@H]3C=C(CC/C=C(\C)CC[C@H]12)C(=O)O3`, the inhibition result in [5] and in experiment [4] was “Dose-dependent effect” each time. Further, the inhibition entry in experiment [6] and in experiment [8] was “Active” each time. The IC50 in [2] was 12.1 µM; in the experiment on DU-145, 32.6 µM; in experiment [3], over 30.5 µM; in experiment [4], 4 µM. Moreover, the inhibition result in experiment [7] is “inactive”.

Regarding `C=C1C(=O)O[C@H]2/C=C(\C)C[C@@H]3C=C(CC[C@@H](OO)C(=C)CC[C@H]12)C(=O)O3`, the inhibition result in experiment [5] and in experiment [4] was “Dose-dependent effect” throughout. In addition, the inhibition result in experiment [6], in experiment [7] and in experiment [9] was “Active” in each case. For the same molecule, the IC50 in experiment [2] is 15.7 µM; with DU-145, 18.8 µM; in experiment [3] it was over 27.8 µM; in experiment [4] it was 4.7 µM.

Consider `CC(C)(O)CCCC1(C)CCc2c(CCC(=O)c3ccc(O)cc3O)ccc(O)c2O1` (stereo not given), for which the IC50 in [2] turned out to be 36.7 µM; in [4], 29.5 µM.

With `CC1(C)CCC[C@]2(C)Oc3c(O)ccc(CCC(=O)c4ccc(O)cc4O)c3C[C@@H]12`, the half-inhibitory concentration (IC50) is 34.3 µM in [2], 53.7 µM in the experiment on DU-145, over 75 µM in [3] and 40.7 µM in experiment [4]. For the same molecule, the inhibition result in [4] was “Dose-dependent effect”.
